Assay results published in patent publication US12447150B2, “Treatment of cancer by combination of immune checkpoint inhibitor and folfirinox therapy” (ONO PHARMACEUTICAL CO., LTD., priority 2018, dated 2025).

System: distant metastatic pancreatic cancer
Assay: Multicenter, open-label study of Nivolumab in combination with mFFX therapy; anti-tumor effect by CT/MRI according to RECIST guideline version 1.1
Format: in vivo, patients
Conditions: 16 weeks after start of administration, central judgment
Description: The purpose of this clinical trial is to evaluate the efficacy and safety in combination of Nivolumab and mFFX therapy for patients with distant metastatic pancreatic cancer, having no history of chemotherapy. The clinical trial can evaluate the combined effect of Nivolumab and mFFX therapy.
Patients with distant metastatic pancreatic cancer, having no history of chemotherapy
Nivolumab was intravenously administered at 480 mg every 4 weeks over 30 minutes, and Nivolumab was continuously administered until falling into the prescribed criterion for discontinuing the administration of Nivolumab. No change in dose of Nivolumab is allowed. When Nivolumab and mFFX therapy were administered on the same day, Nivolumab was administered initially, and at least 30 minutes after the end of Nivolumab administration, mFFX therapy started.
Oxaliplatin was intravenously administered at 85 mg/m^2 over 2 hours, and then levofolinate was intravenously administered at 200 mg/m^2 over 2 hours. 30 minutes after the start of levofolinate administration, irinotecan was intravenously administered at 150 mg/m^2 over 1.5 hours. Further, after completion of levofolinate administration, fluorouracil was intravenously administered at 2400 mg/m^2 over 46 hours. This was set as one cycle and repeated every 2 weeks.
The anti-tumor effect was evaluated by image diagnosis using CT/magnetic resonance imaging (MRI) on chest, abdomen and pelvis, and measuring the tumor diameter in target lesion according to RECIST guideline version 1.1. The diagnosis imaging (measurement of tumor diameter and judgement of anti-tumor effect) was conducted at the following time points. […]
6 months after the first subject was enrolled, for 7 subjects in which the image diagnosis twice every 8 weeks as defined in the clinical trial protocol was completed (16 weeks after the start of administration of the drug), the effectiveness was evaluated (central judgment).

[1] = Nivolumab 480 mg i.v. every 4 weeks in combination with mFFX therapy, 7 subjects evaluated

Nivolumab
response rate (Nivolumab 480 mg i.v. every 4 weeks in combination with mFFX therapy every 2 weeks, 7 subjects with distant metastatic pancreatic cancer, no history of chemotherapy): 42.9%
CR (number of cases) [1]: 0 cases
PR (number of cases) [1]: 3 cases
